From US20260374809A1, “COMPOUNDS USEFUL FOR THE TREATMENT AND/OR CARE OF THE SKIN, HAIR, NAILS AND/OR MUCOUS MEMBRANES” (Lubrizol Advanced Materials, Inc., priority 2022, published 2026)
Where a SMILES comes first, the peptide text is derived from it. [ ]: non-standard residue; d: D form. The star is where a group is joined. Palmitoyl = CCCCCCCCCCCCCCCC(=O)*

Key:
[1] = test system: Human dermal fibroblast (HDF); experiment: Collagen contraction assay with human dermal fibroblasts in collagen gel; assay type: cell-based; settings: 0.01 mg/ml; basal control = 100, positive control with MES = 159.7
From the text: It is known that a remarkable change in the mechanical properties of the skin with aging is due to reduced contractile capacity as well as reduced migration activity of fibroblasts. Healthy fibroblasts induce contraction of the collagen network through physical interactions with collagen fibers. The collagen network is essential for maintaining the firmness of the skin. The collagen contraction assay is a well-known experimental approach to measuring the cell-induced contraction of the extracellular matrix. In this assay, the capacity of fibroblasts, embedded in a collagen-based gel, to reduce the gel diameter is evaluated.
By improving the contractile forces, the mechanical tension can be improved, which can be associated to “lifting” effect at the scale of fibroblasts.
The microcurrent system was built by coupling gold electrodes (in order to avoid medium oxidation leading to cell death when current goes through) to opposite sides of 60 mm Petri dishes (separated by 4 cm). When a voltage is applied, an electric field generates between opposite positive and negative poles and current passes through the culture. During the stimulation time (2 hours), each of the 60 mm Petri dishes is connected to a voltage source that allows regulating the amount of current that passes through each of them. For these experiments, a […] current (which corresponds to approx. 67 mV/mm) was used.
Human dermal fibroblast (HDF) cell culture and expansion: Cells were thawed in T75 flasks and the growth medium was changed every 2 days of cell culture. After 7 days, cells were expanded to obtain a total amount of 7×10^6 cells to be used in the experiments.
Once finished the expansion, cultures are trypsinized and seeded at 3×10^5 cells/60 mm Petri up to a total of 10 dishes per replicate. These ten dishes correspond to one experiment (Control/-MES vs+MES) at a specific concentration. Peptide treatment was performed at 0.01 mg/ml.
After an overnight (O/N) incubation to allow cell attachment, each Petri dish is treated at the corresponding concentration with 4 ml of specific medium for a total of 24 hours in both conditions (without MES and with MES). Peptide treatment on the dishes that are not stimulated with microcurrent is initiated 2 hours in advance, and their passage into 3D cultures occurs at the same time as the microcurrent stimulation of the other dishes. […]
Each 3D culture is prepared by mixing collagen solution with the culture medium corresponding to each of the conditions (without peptide or with peptide). […] Images of collagen gel diameter are taken of each well at 24 hours post detachment and analyzed by ImageJ. […]
[formula] • An initial area is stablished. […] Area t=0 gel […]1.86 cm^2 (Area of a well in a 24-well plate) • Quantification of Area at t=x; Ax. […]

eyebrow = experiment: In vivo eyebrow lifting effect in Caucasian volunteers (FrameScan image analysis); design: species or system human; settings: 28 days; result in words
Method: The study was carried out for 28 days. Forty-six (46) volunteers aged between 40 and 65 years old were included in the study and were divided into two groups. The first group included 36 volunteers (31 women and 5 men) which applied the composition described in Example 5 on half face and placebo (same composition without peptide) on the other half, twice a day for 28 days. The second group of 10 volunteers (9 women and 1 man) used a microcurrent device (Nuface®) with an activator gel without active ingredients once a day. Volunteers using the microcurrent device were trained on how to apply the activator gel and how to use the device to standardize its application among them. […]
Volunteers' facial images were acquired at initial time and after 28 days of product application. The efficacy of the product was assessed by the measurement of a diagonal distance between eyelashes and eyebrows obtained from image analysis with FrameScan® software. The diagonal distance was calculated by drawing a horizontal line between a point at the start of the eyelashes and a point at the end of eyelashes (the eyelashes' line). […]
A study was carried out for 28 days for determining the lifting effect of Ac-Asp-Val-Tyr-Lys-NH2 (not according to the invention). […] The eyebrow lifting effect was determined as disclosed in Example 12.

[2] = test system: Musclebind Like Protein 1 (MBNL1); experiment: MBNL1 protein expression in human skeletal muscle cells (hSKMC), HTRF; assay type: cell-based; settings: 0.5 mg/ml, 48 hours, relative to basal control
Method: Musclebind Like Protein 1 (MBNL1) in Human Skeletal Muscle Cells (hSKMC)
An increase of MBNL-1 in muscle cells helps maintaining the tone of facial skin muscles. Thus, compounds able to enhance MBNL-1 can be used as a good approach for cosmetic treatment of sagging facial appearance.
Human skeletal muscle cells (hSKMC) were cultured at 100,000 cells in T25 flasks with growth medium. After 4 days, cells reached around 80% of confluency and were seeded at 150,000 cells per well in 12-well plates in growth medium. Cells were incubated for 72 hours and then they were changed to differentiation medium and incubated during 48 hours. At the end of this period, cells were treated with defined peptides (0.5 mg/ml) and with medium alone for control conditions during 48 hours in differentiation medium. Cells were also treated with 2 mM of ketoprofen as a positive control.
After the incubation period, cells were lysed and frozen at −80 °C. For total protein quantification protein extract was measured by Bicinchoninic Acid (BCA) method. MBNL1 protein detection was performed by Homogeneous Time Resolved Fluorescence (HTRF) technology. Normalization of MBNL1 levels were performed by total protein quantification for each condition. Results are expressed as a relative MBNL1 protein level respect to control conditions. At least 3 replicates were carried out per condition.

Molecule: CSCC[C@H](NC(=O)[C@@H](CCC(N)=O)NC(=O)[C@H](CCCNC(=N)N)NC(=O)[C@H](CCCNC(=N)N)NC(C)=O)C(=O)N[C@@H](CCC(=O)O)C(=O)N[C@@H](CCC(=O)O)C(N)=O [Ac-Arg-Arg-D-Gln-Met-Glu-Glu-NH2] (Ac-RR[dQ]MEE-NH2)
- Collagen contraction, MEAN (comparative peptides) [1]: 82.5

Molecule: CC(=O)N[C@@H](CC(=O)O)C(=O)N[C@H](C(=O)N[C@@H](Cc1ccc(O)cc1)C(=O)N[C@@H](CCCCN)C(N)=O)C(C)C [Ac-Asp-Val-Tyr-Lys-NH2] (Ac-DVYK-NH2)
- Collagen contraction, MEAN (comparative peptides) [1]: 91.6
- Lifting effect (eyebrow): did not have a lifting effect

Molecule: CC(C)C[C@H](N)C(=O)N1CCC[C@H]1C(=O)N[C@H](C(=O)N[C@H](C(N)=O)[C@@H](C)O)C(C)C [PEP-2, H-Leu-Pro-Val-Thr-NH2] (H-LPVT-NH2)
- % MBNL1 vs Basal control [2]: 183.2%

Molecule: CCCCCCCCCCCCCCCC(=O)N[C@@H](CC(C)C)C(=O)N1CCC[C@H]1C(=O)N[C@H](C(=O)N[C@H](C(=O)O)[C@@H](C)O)C(C)C [PEP-3, Palm-Leu-Pro-Val-Thr-OH] (Palmitoyl-LPVT-OH)
- % MBNL1 vs Basal control [2]: 160.4%

Molecule: CC(=O)N[C@@H](CC(C)C)C(=O)N1CCC[C@H]1C(=O)N[C@H](C(=O)N[C@H](C(=O)O)[C@@H](C)O)C(C)C [PEP-4, Ac-Leu-Pro-Val-Thr-OH] (Ac-LPVT-OH)
- % MBNL1 vs Basal control [2]: 131.3%

Molecule: CC(=O)N[C@@H](CC(C)C)C(=O)N1CCC[C@H]1C(=O)N[C@H](C(=O)N[C@H](C(N)=O)[C@@H](C)O)C(C)C [PEP-5, Ac-Leu-Pro-Val-Thr-NH2] (Ac-LPVT-NH2)
- % MBNL1 vs Basal control [2]: 213.7%

Molecule: CC(C)C[C@H](N)C(=O)N[C@@H](C)C(=O)N[C@H](C(=O)N[C@H](C(=O)O)[C@@H](C)O)C(C)C [PEP-6, H-Leu-Ala-Val-Thr-OH] (H-LAVT-OH)
- % MBNL1 vs Basal control [2]: 157.0%

Molecule: CC[C@H](C)[C@H](NC(=O)[C@@H]1CCCN1C(=O)[C@@H](N)CC(C)C)C(=O)N[C@H](C(=O)O)[C@@H](C)O [PEP-7, H-Leu-Pro-Ile-Thr-OH] (H-LPIT-OH)
- % MBNL1 vs Basal control [2]: 156.3%

Molecule: CC(C)[C@H](N)C(=O)N1CCC[C@H]1C(=O)N[C@H](C(=O)N[C@H](C(=O)O)[C@@H](C)O)C(C)C [PEP-8, H-Val-Pro-Val-Thr-OH] (H-VPVT-OH)
- % MBNL1 vs Basal control [2]: 131.3%

Molecule: CC(C)C[C@H](N)C(=O)NCC(=O)N[C@H](C(=O)N[C@H](C(=O)O)[C@@H](C)O)C(C)C [PEP-9, H-Leu-Gly-Val-Thr-OH] (H-LGVT-OH)
- % MBNL1 vs Basal control [2]: 122.4%

Molecule: CC(C)C[C@H](NC(=O)[C@@H]1CCCN1C(=O)[C@@H](N)CC(C)C)C(=O)N[C@H](C(=O)O)[C@@H](C)O [PEP-10, H-Leu-Pro-Leu-Thr-OH] (H-LPLT-OH)
- % MBNL1 vs Basal control [2]: 222.0%

Molecule: CC(C)C[C@H](N)C(=O)N1CCC[C@H]1C(=O)N[C@H](C(=O)O)C(C)C [PEP-12, H-Leu-Pro-Val-OH] (H-Leu-Pro-Val-OH)
- % MBNL1 vs Basal control [2]: 177.8%

Molecule: CC[C@H](C)[C@H](N)C(=O)N1CCC[C@H]1C(=O)N[C@H](C(=O)N[C@H](C(=O)O)[C@@H](C)O)[C@@H](C)CC [PEP-13, H-Ile-Pro-Ile-Thr-OH] (H-IPIT-OH)
- % MBNL1 vs Basal control [2]: 133.3%

Molecule: H-ALKPNT-NH2 [H-Ala-Leu-Lys-Pro-Asn-Thr-NH2]
- Collagen contraction, MEAN (comparative peptides) [1]: 101.4

Molecule: H-ALPVT-OH [PEP-11, H-Ala-Leu-Pro-Val-Thr-OH]
- % MBNL1 vs Basal control [2]: 259.0%
